Assay results reported in the supplement of paper PMC13207355.

How the values were obtained:
Conditions in all cases: exposure time: 72 h
FT3469 [1] = normal neural stem cell line; assay: surviving fraction (nuclei count normalised to DMSO); higher = more cells surviving (less toxic)
E13 [2] = patient-derived glioblastoma stem cells of classical subtype; assay: as above
E28 [3] = patient-derived glioblastoma stem cells of classical subtype; assay: as above
E57 [4] = patient-derived glioblastoma stem cells of mesenchymal subtype; assay: as above
E34 [5] = patient-derived glioblastoma stem cells of proneural subtype; assay: as above
E21 [6] = patient-derived glioblastoma stem cells of mesenchymal subtype; assay: as above
E31 [7] = patient-derived glioblastoma stem cells of proneural subtype; assay: as above
FT3469 [8] = assay: phenotypic distance (Euclidean, principal components) from DMSO controls (arbitrary units); higher = stronger morphological change
E13 [9] = assay: as above
E28 [10] = assay: as above
E57 [11] = assay: as above
E34 [12] = assay: as above
E21 [13] = assay: as above
E31 [14] = assay: as above
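Wherever phenotypic distance (Euclidean, principal components) from DMSO controls is given: cell Painting imaging in 384-well plates, CellProfiler features reduced to at least 20 principal components, Euclidean distance versus same-plate DMSO vehicle wells (0.1% v/v), median over six images per well.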
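Wherever surviving fraction (nuclei count normalised to DMSO) is given: nuclei counted by high-content imaging of Hoechst-stained cells in laminin-coated 384-well plates, relative to 0.1% DMSO vehicle wells, with staurosporine as cell-death control.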

CC(C)C(=O)OCC(=O)[C@@]12O[C@H](C3CCCCC3)O[C@@H]1C[C@H]1[C@@H]3CCC4=CC(=O)C=C[C@]4(C)[C@H]3[C@@H](O)C[C@@]12C [Ciclesonide]
Conditions	phenotypic distance	surviving fraction
E13 [2], 4.1 nM	–	0.929
E13 [2], 12.3 nM	–	0.899
E13 [2], 37 nM	–	0.833
E13 [2], 111.1 nM	–	0.908
E13 [2], 333.3 nM	–	0.889
E13 [2], 1000 nM	–	0.796
E13 [2], 3000 nM	–	0.233
E13 [9], 4.1 nM	0.991	–
E13 [9], 12.3 nM	0.745	–
E13 [9], 37 nM	1.05	–
E13 [9], 111.1 nM	1.04	–
E13 [9], 333.3 nM	0.74	–
E13 [9], 1000 nM	1.02	–
E13 [9], 3000 nM	3.25	–
E21 [6], 4.1 nM	–	1.24
E21 [6], 12.3 nM	–	1.23
E21 [6], 37 nM	–	1.07
E21 [6], 111.1 nM	–	1.17
E21 [6], 333.3 nM	–	1.19
E21 [6], 1000 nM	–	1.24
E21 [6], 3000 nM	–	0.893
E21 [13], 4.1 nM	1.83	–
E21 [13], 12.3 nM	2.04	–
E21 [13], 37 nM	1.74	–
E21 [13], 111.1 nM	2.02	–
E21 [13], 333.3 nM	2.07	–
E21 [13], 1000 nM	1.89	–
E21 [13], 3000 nM	2.4	–
E28 [3], 4.1 nM	–	1.11
E28 [3], 12.3 nM	–	1
E28 [3], 37 nM	–	1.26
E28 [3], 111.1 nM	–	1.07
E28 [3], 333.3 nM	–	0.894
E28 [3], 1000 nM	–	1.05
E28 [3], 3000 nM	–	0.615
E28 [10], 4.1 nM	1.16	–
E28 [10], 12.3 nM	0.863	–
E28 [10], 37 nM	1.07	–
E28 [10], 111.1 nM	0.708	–
E28 [10], 333.3 nM	1	–
E28 [10], 1000 nM	0.827	–
E28 [10], 3000 nM	2.3	–
E31 [7], 4.1 nM	–	1.24
E31 [7], 12.3 nM	–	1.11
E31 [7], 37 nM	–	1.33
E31 [7], 111.1 nM	–	1.47
E31 [7], 333.3 nM	–	1.25
E31 [7], 1000 nM	–	1.27
E31 [7], 3000 nM	–	0.766
E31 [14], 4.1 nM	2.4	–
E31 [14], 12.3 nM	2.62	–
E31 [14], 37 nM	3	–
E31 [14], 111.1 nM	3.03	–
E31 [14], 333.3 nM	3.06	–
E31 [14], 1000 nM	3.27	–
E31 [14], 3000 nM	2.27	–
E34 [5], 4.1 nM	–	1.04
E34 [5], 12.3 nM	–	0.897
E34 [5], 37 nM	–	1.13
E34 [5], 111.1 nM	–	1.02
E34 [5], 333.3 nM	–	1.08
E34 [5], 1000 nM	–	1.06
E34 [5], 3000 nM	–	0.589
E34 [12], 4.1 nM	0.88	–
E34 [12], 12.3 nM	0.851	–
E34 [12], 37 nM	1.45	–
E34 [12], 111.1 nM	1.77	–
E34 [12], 333.3 nM	1.12	–
E34 [12], 1000 nM	0.771	–
E34 [12], 3000 nM	1.4	–
E57 [4], 4.1 nM	–	1.08
E57 [4], 12.3 nM	–	1.18
E57 [4], 37 nM	–	1.1
E57 [4], 111.1 nM	–	1.32
E57 [4], 333.3 nM	–	1.16
E57 [4], 1000 nM	–	1.19
E57 [4], 3000 nM	–	0.756
E57 [11], 4.1 nM	1.77	–
E57 [11], 12.3 nM	2.02	–
E57 [11], 37 nM	2.36	–
E57 [11], 111.1 nM	2.51	–
E57 [11], 333.3 nM	2.31	–
E57 [11], 1000 nM	2.44	–
E57 [11], 3000 nM	2.49	–
FT3469 [1], 4.1 nM	–	1.1
FT3469 [1], 12.3 nM	–	1.38
FT3469 [1], 37 nM	–	1.15
FT3469 [1], 111.1 nM	–	1.04
FT3469 [1], 333.3 nM	–	1.03
FT3469 [1], 1000 nM	–	1.1
FT3469 [1], 3000 nM	–	0.803
FT3469 [8], 4.1 nM	1.45	–
FT3469 [8], 12.3 nM	1.86	–
FT3469 [8], 37 nM	1.15	–
FT3469 [8], 111.1 nM	1.37	–
FT3469 [8], 333.3 nM	1.4	–
FT3469 [8], 1000 nM	0.997	–
FT3469 [8], 3000 nM	0.762	–

CC(=O)c1cnc2ccc(-c3cc(Cl)c(O)c(Cl)c3)nc2c1N[C@H]1CC[C@H](CN(C)C)CC1 [OTSSP167]
Conditions	phenotypic distance	surviving fraction
E13 [2], 0.4 nM	–	0.96
E13 [2], 1.2 nM	–	0.925
E13 [2], 3.7 nM	–	0.908
E13 [2], 11.1 nM	–	0.685
E13 [2], 33.3 nM	–	0.422
E13 [2], 100 nM	–	0.205
E13 [2], 300 nM	–	0.1423
E13 [9], 0.4 nM	1.66	–
E13 [9], 1.2 nM	1.67	–
E13 [9], 3.7 nM	2.455	–
E13 [9], 11.1 nM	3.33	–
E13 [9], 33.3 nM	6.59	–
E13 [9], 100 nM	7.76	–
E13 [9], 300 nM	8.64	–
E21 [6], 0.4 nM	–	0.988
E21 [6], 1.2 nM	–	1.09
E21 [6], 3.7 nM	–	0.945
E21 [6], 11.1 nM	–	0.737
E21 [6], 33.3 nM	–	0.546
E21 [6], 100 nM	–	0.317
E21 [6], 300 nM	–	0.161
E21 [13], 0.4 nM	1.7	–
E21 [13], 1.2 nM	2.06	–
E21 [13], 3.7 nM	2.41	–
E21 [13], 11.1 nM	2.49	–
E21 [13], 33.3 nM	4.22	–
E21 [13], 100 nM	4.87	–
E21 [13], 300 nM	6.25	–
E28 [3], 0.4 nM	–	1.04
E28 [3], 1.2 nM	–	1.21
E28 [3], 3.7 nM	–	1.16
E28 [3], 11.1 nM	–	0.994
E28 [3], 33.3 nM	–	0.575
E28 [3], 100 nM	–	0.247
E28 [3], 300 nM	–	0.233
E28 [10], 0.4 nM	1.32	–
E28 [10], 1.2 nM	1.49	–
E28 [10], 3.7 nM	1.75	–
E28 [10], 11.1 nM	2.62	–
E28 [10], 33.3 nM	4.37	–
E28 [10], 100 nM	4.36	–
E28 [10], 300 nM	4.295	–
E31 [7], 0.4 nM	–	0.94
E31 [7], 1.2 nM	–	0.896
E31 [7], 3.7 nM	–	1.02
E31 [7], 11.1 nM	–	0.913
E31 [7], 33.3 nM	–	0.59
E31 [7], 100 nM	–	0.196
E31 [7], 300 nM	–	0.0607
E31 [14], 0.4 nM	1.92	–
E31 [14], 1.2 nM	2.29	–
E31 [14], 3.7 nM	2.8	–
E31 [14], 11.1 nM	2.81	–
E31 [14], 33.3 nM	2.5	–
E31 [14], 100 nM	5.33	–
E31 [14], 300 nM	7.69	–
E34 [5], 0.4 nM	–	1
E34 [5], 1.2 nM	–	0.983
E34 [5], 3.7 nM	–	0.947
E34 [5], 11.1 nM	–	0.748
E34 [5], 33.3 nM	–	0.535
E34 [5], 100 nM	–	0.567
E34 [5], 300 nM	–	0.384
E34 [12], 0.4 nM	1.46	–
E34 [12], 1.2 nM	1.96	–
E34 [12], 3.7 nM	1.73	–
E34 [12], 11.1 nM	2.43	–
E34 [12], 33.3 nM	3.89	–
E34 [12], 100 nM	2.89	–
E34 [12], 300 nM	2.9	–
E57 [4], 0.4 nM	–	1.43
E57 [4], 1.2 nM	–	1.46
E57 [4], 3.7 nM	–	1.48
E57 [4], 11.1 nM	–	1.23
E57 [4], 33.3 nM	–	0.626
E57 [4], 100 nM	–	0.171
E57 [4], 300 nM	–	0.108
E57 [11], 0.4 nM	1.81	–
E57 [11], 1.2 nM	2.24	–
E57 [11], 3.7 nM	2.97	–
E57 [11], 11.1 nM	3.48	–
E57 [11], 33.3 nM	4.61	–
E57 [11], 100 nM	7.8122	–
E57 [11], 300 nM	5.83	–
FT3469 [1], 0.4 nM	–	1.13
FT3469 [1], 1.2 nM	–	1.2
FT3469 [1], 3.7 nM	–	1.08
FT3469 [1], 11.1 nM	–	0.783
FT3469 [1], 33.3 nM	–	0.638
FT3469 [1], 100 nM	–	0.502
FT3469 [1], 300 nM	–	0.45
FT3469 [8], 0.4 nM	2.21	–
FT3469 [8], 1.2 nM	2.77	–
FT3469 [8], 3.7 nM	3.26	–
FT3469 [8], 11.1 nM	3.53	–
FT3469 [8], 33.3 nM	4.08	–
FT3469 [8], 100 nM	4.14	–
FT3469 [8], 300 nM	3.137	–
